Experiments:
IDO1 [1] = target: T1, IDO1 (Homo sapiens, UniProt P14902); experiment: IDO1 cellular activity using Hela cells (IFN-gamma induced IDO expression, kynurenine absorbance at 480 nm); format: cell-based; conditions: IDO induced with interferon gamma 50 ng/ml, 24 h compound incubation, read-out: Inhibitory Activity (IC50)
Description: Hela cells were seeded at a density of 20000 cells/well in 100 μl of a culture medium (EMEM supplemented with 10% FBS, penicillin 100 U/ml, and streptomycin 100 μg/ml) in a tissue culture-treated 96 well plate. The cells were cultured in a 5% carbon dioxide incubator for 24 hours, treated with recombinant human interferon gamma at the concentration of 50 ng/ml, and then cultured for 48 hours in a 5% carbon dioxide incubator to induce IDO expression.
The activities were measured using IDO1 cellular activity-measuring substrate (IDO1 cellular activity quickDetect supplements catalog: #62000-2, BPS Bioscience). Specifically, an assay medium was prepared by diluting IDO1 assay medium substrate 1 and IDO1 assay medium supplement 2 in a culture medium at a ratio of 1:100, respectively. The test compounds were diluted to the predetermined concentrations in the fresh assay medium. After removing the culture medium using a multi-pipet, 200 μl of each assay medium containing the test material was added into the respective well, followed by incubating in a 5% carbon dioxide incubator for 24 hours. The next day, 140 μl of culture medium from each well was transferred to a new 96-well plate. 10 μl of 6.1N trichloroacetic acid was added into each well, which was then cultured in a 50° C. incubator for 30 minutes. The plate was centrifuged at 2500 rpm for 10 minutes to settle any sediment. A detection reagent solution was prepared by diluting the detection reagent (component D kit, catalog: #62000-2, BPS Bioscience) 50-fold in acetic acid. 100 μl of the supernatant taken from the centrifuged plate was transferred to a new transparent 96-well plate and then 100 μl of the detection reagent solution was added thereto. After reacting at room temperature for 10 minutes, absorbance was measured at 480 nm wavelength. For analysis of the results, the absorbance (At) of the well containing Hela cells in which IDO protein expression was induced without treatment of an inhibitor was 100%; and the absorbance (Ab) of the well containing Hela cells in which IDO protein expression was not induced was 0. The % absorbance was calculated according to the following equation: % Absorbance=(A−Ab)/(At−Ab), A=absorbance of the well treated with the test compound.
The results obtained by calculating the 50% inhibitory concentration (C50) of each compound, from the absorbance values obtained as described above, are shown in Table 1 below.

IDO1 [2] = target: T1, IDO1; experiment: IDO1 cellular activity using HEK293 cells transfected with IDO1 expression vector; format: cell-based; parameters: host or cells: HEK293 cells, transient transfection with Lipofectamine 2000; conditions: 24 h compound incubation, read-out: Inhibitory Activity (IC50)
Description: HEK293 cells were seeded at a density of 30000 cells/well in 100 μl of a culture medium (DMEM supplemented with 10% FBS, penicillin 100 U/ml, and streptomycin 100 μg/ml) in a tissue culture-treated 96 well plate. The cells were cultured in a 5% carbon dioxide incubator for 24 hours, transfected with the IDO1 expression vector (component A in IDO1 cell-based assay kit, catalog #72031, BPS Bioscience) using Lipofectamine 2000 (Life Technologies, #11668027), and then cultured for 24 hours in a 5% carbon dioxide incubator to express the IDO protein.
The activities were measured using a IDO1 cell-based assay kit (catalog #72031, BPS Bioscience). Specifically, an assay medium was prepared by diluting IDO1 assay medium substrate 1 and IDO1 assay medium supplement 2 in a culture medium at a ratio of 1:100, respectively. The test compounds were diluted to the predetermined concentrations in the fresh assay medium. After removing the culture medium using a multi-pipet, 200 μl of each assay medium containing the test material was added into respective well, followed by incubating in a 5% carbon dioxide incubator for 24 hours. The next day, 140 μl of culture medium from each well was transferred to a new 96-well plate. 10 μl of 6.1N trichloroacetic acid was added into each well, which was then cultured in a 50° C. incubator for 30 minutes. The plate was centrifuged at 2500 rpm for 10 minutes to settle any sediment. A detection reagent solution was prepared by diluting the detection reagent (component D in IDO1 cell-based assay kit, catalog #72031 BPS Bioscience) 50-fold in acetic acid. 100 μl of the supernatant taken from the centrifuged plate was transferred to a new transparent 96-well plate and then 100 μl of the detection reagent solution was added thereto. After reacting at room temperature for 10 minutes, absorbance was measured at 480 nm wavelength. For analysis of the results, the absorbance (At) of the well containing HEK293 cells in which IDO protein was expressed without treatment of an inhibitor was 100%; and the absorbance (Ab) of the well containing HEK293 cells in which IDO protein was not expressed was 0. The % absorbance was calculated according to the following equation: % Absorbance=(A−Ab)/(At−Ab), A=absorbance of the well treated with the test compound.

T1 sequence (P14902 whole entry): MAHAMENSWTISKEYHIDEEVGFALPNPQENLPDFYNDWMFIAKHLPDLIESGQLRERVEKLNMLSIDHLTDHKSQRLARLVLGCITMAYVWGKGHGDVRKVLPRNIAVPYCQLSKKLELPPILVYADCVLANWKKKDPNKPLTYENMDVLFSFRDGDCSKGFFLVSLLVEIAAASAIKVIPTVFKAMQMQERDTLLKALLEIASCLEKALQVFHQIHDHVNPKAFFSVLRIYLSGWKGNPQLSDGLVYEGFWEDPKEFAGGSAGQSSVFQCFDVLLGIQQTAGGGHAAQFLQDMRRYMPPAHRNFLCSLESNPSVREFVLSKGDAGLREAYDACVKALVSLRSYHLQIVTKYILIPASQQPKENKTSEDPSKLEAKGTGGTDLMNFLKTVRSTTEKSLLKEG

CCOc1ccc2nc(N[C@H](CC)C[C@H]3CC[C@@H](c4ccnc5ccc(F)cc54)CC3)sc2c1 [Example 20, 6-ethoxy-N-((R)-1-((cis)-4-(6-fluoroquinolin-4-yl)cyclohexyl)butan-2-yl)benzo[d]thiazol-2-amine]
IC50 (IDO1 [1]): 24 nM | IC50 (IDO1 [2]): 14.3 nM

C[C@H](C[C@H]1CC[C@H](c2ccnc3ccc(F)cc32)CC1)Nc1cc(=O)oc2ccc(Br)cc12 [Example 7, 6-bromo-4-(((R)-1-((trans)-4-(6-fluoroquinolin-4-yl)cyclohexyl)propan-2-yl)amino)-2H-chromen-2-one]
IC50 (IDO1 [1]): 19 nM

CC[C@H](C[C@H]1CC[C@@H](c2ccnc3ccc(F)cc32)CC1)Nc1nc2ccc(OC)cc2s1 [Example 15, N-((R)-1-((cis)-4-(6-fluoroquinolin-4-yl)cyclohexyl)butan-2-yl)-6-methoxybenzo[d]thiazol-2-amine]
IC50 (IDO1 [1]): 5.1 nM

C[C@H](C[C@H]1CC[C@@H](c2ccnc3ccc(F)cc32)CC1)Nc1cc(=O)oc2cc(Cl)ccc12 [Example 8, 7-chloro-4-(((R)-1-((cis)-4-(6-fluoroquinolin-4-yl)cyclohexyl)propan-2-yl)amino)-2H-chromen-2-one]
IC50 (IDO1 [1]): 5.9 nM

C[C@H](C[C@H]1CC[C@H](c2ccnc3ccc(F)cc32)CC1)Nc1ncnc2cc(Cl)ccc12 [Example 4, 7-chloro-N-((R)-1-((trans)-4-(6-fluoroquinolin-4-yl)cyclohexyl)propan-2-yl)quinazolin-4-amine]
IC50 (IDO1 [1]): 11 nM

C[C@H](C[C@H]1CC[C@@H](c2ccnc3ccc(F)cc32)CC1)Nc1ncnc2cc(Cl)ccc12 [Example 3, 7-chloro-N-((R)-1-((cis)-4-(6-fluoroquinolin-4-yl)cyclohexyl)propan-2-yl)quinazolin-4-amine]
IC50 (IDO1 [1]): 14 nM

C[C@H](C[C@H]1CC[C@@H](c2ccnc3ccc(F)cc32)CC1)Nc1nc2ccccc2o1 [Example 24, N-((R)-1-((cis)-4-(6-fluoroquinolin-4-yl)cyclohexyl)propan-2-yl)benzo[d]oxazol-2-amine]
IC50 (IDO1 [1]): 17 nM

COc1ccc2nc(N[C@@H](C[C@H]3CC[C@@H](c4ccnc5ccc(F)cc54)CC3)C3CC3)sc2c1 [Example 16, N-((S)-1-cyclopropyl-2-((cis)-4-(6-fluoroquinolin-4-yl)cyclohexyl)ethyl)-6-methoxybenzo[d]thiazol-2-amine]
IC50 (IDO1 [1]): 4 nM

C[C@H](C[C@H]1CC[C@@H](c2ccnc3ccc(F)cc32)CC1)Nc1cc(=O)oc2cc(Br)ccc12 [Example 9, 7-bromo-4-(((R)-1-((cis)-4-(6-fluoroquinolin-4-yl)cyclohexyl)propan-2-yl)amino)-2H-chromen-2-one]
IC50 (IDO1 [1]): 18 nM

C[C@H](C[C@H]1CC[C@H](c2ccnc3ccc(F)cc32)CC1)Nc1cc(=O)oc2cc(Cl)ccc12 [Example 6, 7-chloro-4-(((R)-1-((trans)-4-(6-fluoroquinolin-4-yl)cyclohexyl)propan-2-yl)amino)-2H-chromen-2-one]
IC50 (IDO1 [1]): 17 nM

C[C@H](C[C@H]1CC[C@@H](c2ccnc3ccc(F)cc32)CC1)Nc1nc(Cl)nc2ccccc12 [Example 38, 2-chloro-N-((R)-1-((cis)-4-(6-fluoroquinolin-4-yl)cyclohexyl)propan-2-yl)quinazolin-4-amine]
IC50 (IDO1 [2]): 23.7 nM

C[C@H](C[C@H]1CC[C@@H](c2ccnc3ccc(F)cc32)CC1)Nc1nc2cc(F)ccc2o1 [Example 36, 5-fluoro-N-((R)-1-((cis)-4-(6-fluoroquinolin-4-yl)cyclohexyl)propan-2-yl)benzo[d]oxazol-2-amine]
IC50 (IDO1 [2]): 5.7 nM

C[C@H](C[C@H]1CC[C@@H](c2ccnc3ccc(F)cc32)CC1)Nc1nc(Cl)nc2c(F)cccc12 [Example 69, 2-chloro-8-fluoro-N-((R)-1-((cis)-4-(6-fluoroquinolin-4-yl)cyclohexyl)propan-2-yl)quinazolin-4-amine]
IC50 (IDO1 [2]): 18.8 nM

C[C@H](C[C@H]1CC[C@@H](c2ccnc3ccc(F)cc32)CC1)Nc1nc2cc(F)c(Cl)cc2o1 [Example 43, 6-chloro-5-fluoro-N-((R)-1-((cis)-4-(6-fluoroquinolin-4-yl)cyclohexyl)propan-2-yl)benzo[d]oxazol-2-amine]
IC50 (IDO1 [2]): 6.3 nM

C[C@H](C[C@H]1CC[C@@H](c2ccnc3ccc(F)cc32)CC1)Nc1ncnc2cc(C#N)ccc12 [Example 1, 4-(((R)-1-((cis)-4-(6-fluoroquinolin-4-yl)cyclohexyl)propan-2-yl)amino)quinazolin-7-carbonitrile]
IC50 (IDO1 [1]): 16 nM

C[C@H](C[C@H]1CC[C@@H](c2ccnc3ccc(F)cc32)CC1)Nc1nc(Cl)nc2cc(C#N)ccc12 [Example 63, 2-chloro-4-(((R)-1-((cis)-4-(6-fluoroquinolin-4-yl)cyclohexyl)propan-2-yl)amino)quinazolin-7-carbonitrile]
IC50 (IDO1 [2]): 27.5 nM

C[C@H](C[C@H]1CC[C@H](c2ccnc3ccc(F)cc32)CC1)Nc1nc(Cl)nc2c(F)cccc12 [Example 50, 2-chloro-8-fluoro-N-((R)-1-((trans)-4-(6-fluoroquinolin-4-yl)cyclohexyl)propan-2-yl)quinazolin-4-amine]
IC50 (IDO1 [2]): 62.3 nM

C[C@H](C[C@H]1CC[C@H](c2ccnc3ccc(F)cc32)CC1)Nc1nc(Cl)nc2cc(Br)ccc12 [Example 56, 7-bromo-2-chloro-N-((R)-1-((trans)-4-(6-fluoroquinolin-4-yl)cyclohexyl)propan-2-yl)quinazolin-4-amine]
IC50 (IDO1 [2]): 19.3 nM

CCOc1ccc2nc(N[C@H](C)C[C@H]3CC[C@@H](c4ccnc5ccc(F)cc54)CC3)oc2c1 [Example 44, 6-ethoxy-N-((R)-1-((cis)-4-(6-fluoroquinolin-4-yl)cyclohexyl)propan-2-yl)benzo[d]oxazol-2-amine]
IC50 (IDO1 [2]): 4.4 nM

C[C@H](C[C@H]1CC[C@@H](c2ccnc3ccc(F)cc32)CC1)Nc1nc2ccc(F)c(F)c2o1 [Example 47, 6,7-difluoro-N-((R)-1-((cis)-4-(6-fluoroquinolin-4-yl)cyclohexyl)propan-2-yl)benzo[d]oxazol-2-amine]
IC50 (IDO1 [2]): 5.5 nM

COc1ccc2nc(N[C@H](C)C[C@H]3CC[C@@H](c4ccnc5ccc(F)cc54)CC3)sc2c1 [Example 14, N-((R)-1-((cis)-4-(6-fluoroquinolin-4-yl)cyclohexyl)propan-2-yl)-6-methoxybenzo[d]thiazol-2-amine]
IC50 (IDO1 [1]): 1 nM

C[C@H](C[C@H]1CC[C@H](c2ccnc3ccc(F)cc32)CC1)Nc1nc(Cl)nc2ccc(Cl)cc12 [Example 49, 2,6-dichloro-N-((R)-1-((trans)-4-(6-fluoroquinolin-4-yl)cyclohexyl)propan-2-yl)quinazolin-4-amine]
IC50 (IDO1 [2]): 72 nM

C[C@H](C[C@H]1CC[C@@H](c2ccnc3ccc(F)cc32)CC1)Nc1nc2ncccc2s1 [Example 21, N-((R)-1-((cis)-4-(6-fluoroquinolin-4-yl)cyclohexyl)propan-2-yl)thiazolo[4,5-b]pyridin-2-amine]
IC50 (IDO1 [1]): 18 nM
